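Cells were grown in 96-well plates and exposed to each compound for 48 hours at five concentrations; endpoints were interpolated linearly between bracketing concentrations, or set to the highest concentration if not reached. GI50: concentration for 50% inhibition of growth.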 The source made the active and inactive calls. Rule as the data show it: active = GI50 up to about 1.1 µM and inactive = higher.
Assays:
Experiment in all cases: NCI anticancer screen, dose series, 48 h
OVCAR-5 = tested on: OVCAR-5
NCI-H460 = tested on: NCI-H460
OVCAR-4 = tested on: OVCAR-4
SK-MEL-28 = tested on: SK-MEL-28
SN12C = tested on: SN12C
786-0 = tested on: 786-0
IGROV-1 = tested on: IGROV-1
HCT-15 = tested on: HCT-15
UO-31 = tested on: UO-31
COLO 205 = tested on: COLO 205
UACC-257 = tested on: UACC-257
NCI-H23 = tested on: NCI-H23
NCI-H226 = tested on: NCI-H226
SF-295 = tested on: SF-295
A549 = tested on: A549
RXF 393 = tested on: RXF 393

| Compound | GI50 (OVCAR-5) | GI50 (NCI-H460) | GI50 (OVCAR-4) | GI50 (SK-MEL-28) | GI50 (SN12C) | GI50 (786-0) | GI50 (IGROV-1) | GI50 (HCT-15) [µM] | GI50 (UO-31) | GI50 (COLO 205) | GI50 (UACC-257) | GI50 (NCI-H23) | GI50 (NCI-H226) | GI50 (SF-295) | GI50 (A549) | GI50 (RXF 393) |
| --- | --- | --- | --- | --- | --- | --- | --- | --- | --- | --- | --- | --- | --- | --- | --- | --- |
| CCOC(=O)C12CCCC1(O)N(NC(=O)OC)C(C)=C2C(=O)OC (configuration not stated) | > 100 µM (inactive) | > 100 µM (inactive) | > 100 µM (inactive) | > 100 µM (inactive) | > 100 µM (inactive) | 20.4 µM (inactive) | > 100 µM (inactive) | > 100 | > 100 µM (inactive) | > 100 µM (inactive) | > 100 µM (inactive) | > 100 µM (inactive) | > 100 µM (inactive) | > 10 µM (inactive) | > 100 µM (inactive) | – |
| COC(=O)C1C(=O)O[C@@H](c2ccc(OC)cc2)C1C(=O)OC (some centres not stated) | > 100 µM (inactive) | – | > 100 µM (inactive) | > 100 µM (inactive) | > 100 µM (inactive) | > 100 µM (inactive) | > 100 µM (inactive) | – | > 100 µM (inactive) | > 100 µM (inactive) | > 100 µM (inactive) | > 100 µM (inactive) | > 100 µM (inactive) | > 100 µM (inactive) | > 100 µM (inactive) | > 100 µM (inactive) |
| O=C1C=CC=CC2CC=C[C@@H](O)C12 (some centres not stated) | 30.5 µM (inactive) | 18.4 µM (inactive) | 31 µM (inactive) | – | 22.4 µM (inactive) | 17.2 µM (inactive) | 39.6 µM (inactive) | 17.3 | 16.4 µM (inactive) | 19.6 µM (inactive) | 14 µM (inactive) | > 10 µM (inactive) | – | 20.7 µM (inactive) | 26.2 µM (inactive) | – |
| O=C(Nc1c(O)[nH]c(=S)[nH]c1=O)c1ccccc1 | > 100 µM (inactive) | > 100 µM (inactive) | > 100 µM (inactive) | > 100 µM (inactive) | > 100 µM (inactive) | > 100 µM (inactive) | > 100 µM (inactive) | > 100 | > 100 µM (inactive) | > 100 µM (inactive) | > 100 µM (inactive) | > 100 µM (inactive) | > 100 µM (inactive) | > 100 µM (inactive) | > 100 µM (inactive) | – |
| O=C1Nc2ccccc2/C1=N/NC(=O)c1ccccc1O | > 100 µM (inactive) | 34.8 µM (inactive) | 75.5 µM (inactive) | 60.5 µM (inactive) | 35.2 µM (inactive) | 53.3 µM (inactive) | – | 32.6 | 28.2 µM (inactive) | > 100 µM (inactive) | 44 µM (inactive) | 24.5 µM (inactive) | 33.2 µM (inactive) | 27.9 µM (inactive) | 55.3 µM (inactive) | 16.6 µM (inactive) |
| O=C1CCN2C(=O)CCN12 | > 100 µM (inactive) | > 100 µM (inactive) | > 100 µM (inactive) | > 100 µM (inactive) | > 100 µM (inactive) | > 100 µM (inactive) | – | – | > 100 µM (inactive) | > 100 µM (inactive) | > 100 µM (inactive) | > 100 µM (inactive) | > 100 µM (inactive) | > 100 µM (inactive) | > 100 µM (inactive) | – |
| CC(=O)NNc1nc(C)c(C(=O)/C=C/c2ccc(Cl)cc2)s1 | > 100 µM (inactive) | > 100 µM (inactive) | – | > 100 µM (inactive) | – | > 100 µM (inactive) | > 100 µM (inactive) | – | > 100 µM (inactive) | > 100 µM (inactive) | > 100 µM (inactive) | > 100 µM (inactive) | – | > 100 µM (inactive) | > 100 µM (inactive) | > 100 µM (inactive) |

Source: ChEMBL document CHEMBL1201862, “PubChem BioAssay data set” (2004)
